In paper PMC9102668, “Highly Cytotoxic Osmium(II) Compounds and Their Ruthenium(II) Analogues Targeting Ovarian Carcinoma Cell Lines and Evading Cisplatin Resistance Mechanisms” (International Journal of Molecular Sciences, 2022):
Blank lines part the entries; values can stand above or below the compound they belong to.

What was measured:
[1] = system: A2780 and SKOV3 cells and the resistant subcultures; assay: Cell cycle distribution, PI staining and FACS; assay type: cell-based; details: 48 h treatment, 24 h recovery
Experimental: The reduced viability under treatment, as measured by the MTT assay, can be a result of cell cycle arrest and/or increased cell death. To further evaluate the anticancer properties of the ruthenium(II) complexes we measured cell cycle distribution and cell death rates after treatment with Ru3 or Ru14. After seeding and attaching, the cells were treated for 48 h with different concentrations of substances. For cell cycle distribution measurements, a recovery phase of 24 h was added after treatment, and cells were fixed and stained with PI for the DNA content. Arresting of cells in specific cell cycle phases gives them time to resolve the DNA damage (G1 arrest) or is an initial step to apoptosis if DNA damage is too severe (G2/M arrest).
(§1) To examine cell cycle distribution and cell death rates, 30,000 cells were seeded in 12 well plates. After attaching for 24 h cells were treated with Cisplatin, Ru3 and Ru14 for 48 h at various concentrations for cell cycle and cell death analyses. For cell death analysis, immediately after treatment cells were stained with Propidium Iodid (PI) (1 µg/mL) on ice and the number of dead cells was measured using BD Canto II. For cell cycle distribution, cells recovered for 24 h after treatment. Afterwards, cells were fixed in ice-cold, 50% EtOH for 24 h at −20 °C. For DNA staining, fixed cells were incubated in PBS with 0.05% Triton-X, 0.1 µg/mL RNaseA and 50 µg/mL PI for 1 h at 4 °C in dark. DNA content was measured using BD Canto II.

[2] = system: A549; assay: MTT assay (CellTiter96), cytotoxic activity; assay type: cell-based; details: lung carcinoma cell line, 48 h incubation
Experimental: (§2) The biological behaviour of all substances was characterized by their cytotoxic activity against a panel of cell lines enabling an understanding of the structure-activity relationship. Cytotoxic activity was determined on ovarian carcinoma cell lines SKOV3 and A2780 as well as their Cisplatin resistant analogues (SKOV3cis and A2780cis) and the lung carcinoma cell line A549. Due to a low solubility in water, dmso is used as a solvent for the preparation of a dilution series in cell culture experiments. The toxic influence of dmso was determined earlier and experiments were carried out with 0.5% dmso in cell culture media and this concentration was used as reference sample in each MTT assay (details: Section 3). […] Resistance factors (RF) were determined for all substances (for IC50 values and RF of β-Hydroxydithiocinnamic acid esters L1–L18, see Tables S2 and S3, Supplementary part). All investigated ruthenium(II) compounds show lower RF values than Cisplatin on ovarian carcinoma cell lines, ranging from 0.2 to 1.5 (Table 3). Whereas the IC50 values on the non-resistant cell lines are in most cases higher than the IC50 of the reference substance, no increase of IC50 values is observed for the resistant cell lines. Contrary, eight ruthenium complexes show lower IC50 values on SKOV3cis than Cisplatin and four compounds on A2780cis. Thus, it can be concluded that these compounds are able to bypass the Cisplatin resistance mechanism in these cell lines pointing to a different mechanism of action.
(§3) Ovarian cancer cell lines were cultured under standard conditions (5% CO2, 37 °C, 90% humidity) in RPMI medium supplemented with 10% FCS, 100 U/mL penicillin and 100 µg/mL streptomycin (Life Technologies, Dreieich, Germany). Cisplatin (Sigma, Taufkirchen, Germany) was freshly dissolved at 1 mg/mL in 0.9% NaCl solution and diluted appropriately. New ruthenium(II) complexes and ligands were dissolved in dmso. Platinum-resistant A2780 and SKOV3 cells were established by repeated rounds of 3-day incubations with increasing amounts of Cisplatin starting with 0.1 µM. The concentration was doubled after 3 incubations, interrupted by recovery phases with normal medium. […] Determinations of IC50 values were carried out using the CellTiter96 non-radioactive proliferation assay (MTT assay, Promega, Mannheim, Germany). After seeding 5000 cells per well in a 96-well plate, cells were allowed to attach for 24 h and were incubated for 48 h with different concentrations of the substances ranging from 0 to 500 µM for Ruthenium and 0 to 1000 µM for ligand tests (0, 1, 10, 50, 100, 500, 1000 µm), for Cisplatin from 0 to 100 µM (0.1, 1, 5, 10, 50, 100 µM). Each measurement was done in triplicate and repeated 3 times. The proportion of viable cells was quantified by the MTT assay and after background subtraction relative values compared to the mean of medium controls were calculated. Non-linear regression analyses applying the Hill slope were run in GraphPad 5.0 software.

[3] = system: A2780; assay: MTT assay (CellTiter96), cytotoxic activity; assay type: cell-based; details: 48 h incubation
Experimental: as §2, §3

[4] = system: SKOV3; assay: MTT assay (CellTiter96), cytotoxic activity; assay type: cell-based; details: 48 h incubation
Experimental: as §2, §3

[5] = system: A2780cis; assay: MTT assay (CellTiter96), cytotoxic activity; assay type: cell-based; details: for RF A2780 (resistance factor): A2780cis vs A2780; for IC50: Cisplatin resistant A2780, MTT assay, 48 h incubation
Experimental: as §2, §3

[6] = system: SKOV3cis; assay: MTT assay (CellTiter96), cytotoxic activity; assay type: cell-based; details: for IC50: Cisplatin resistant SKOV3, MTT assay, 48 h incubation; for RF SKOV3 (resistance factor): SKOV3cis vs SKOV3
Experimental: as §2, §3

[7] = system: histone γH2AX-foci; assay: γH2AX foci analysis (DNA damage); assay type: cell-based; details: IC50 concentration, 24h incubation
From the text: ROS production may also lead to endoplasmatic reticulum stress-induced apoptosis. In general, many ruthenium(II) complexes with different ligands induce intracellular ROS [94, 95, 96, 97, 98, 99]. Moreover, the cytotoxic activity of Os(II) compounds can be inhibited by vitamin E co-treatment pointing to the contribution of ROS [88]. In addition to mitochondrial dysfunction, Ru(II) complexes may affect glycolysis or topoisomerase I/II, thus inducing necroptosis. Ru(II) compounds with modified pyrithione ligands were recently described to overcome platinum resistance in ovarian cancer cells by inducing cytostatic G1 arrest, TrxR inhibition, and cell membrane damage. […] Future studies may identify the specific target proteins enabling molecular docking studies and specific refinement of the organo-metal compound structure. Altogether, presented compounds may use some of these alternative modes of action as well, as we see efficient cell death but no cell cycle arrest induction by Ru3/Ru14. Furthermore, the ruthenium(II) core atom might be responsible for this effect because of the lack of anticancer behaviour of the ligand L14 (Supplementary Figure S8). To further confirm that Ru compounds use another mechanism of action, DNA damage analyses were conducted for Ru3 and Ru14 (Figure 8). […]

[8] = system: Cisplatin resistant cell lines; assay: Mean IC50 (MTT assay) on Cisplatin resistant cell lines; assay type: cell-based
Experimental: Thus, it can be concluded that the biological activity is mediated by a longer chain (butoxy) at the meta-position, whereas the ortho- and para-positions are more suitable with a shorter chain (ethoxy). To have a further look at the influence of the different ligand systems and substitution patterns, all β-Hydroxydithiocinnamic acid alkyl esters were tested under same conditions as their derived ruthenium(II) complexes (Figure 5B, Supplementary Table S3). […] All ligands are less cytotoxic than Cisplatin itself and therefore the metal(II) center is necessary for the high cytotoxic activity, what is in clear contrast to the literature for O,S-chelating ruthenium(II) or osmium(II) compounds with thiomaltol ligand [48, 71] but confirmed for Ru(II)/Os(II) compounds with N,N-bidentate glycosyl heterocyclic ligands. This is exemplarily shown by the comparison of mean IC50 values for Cisplatin, L14, and Ru14 (Supplementary Figure S8).
as §3

[9] = system: A2780 cells; assay: Cell death rate, PI staining of live cells (FACS); assay type: cell-based; details: 48 h
Experimental: (§4) For cell death rate analysis, live cells were stained with PI immediately after 48 h treatment. […] Furthermore, resistant cells show much lower Cisplatin-induced cell death rates (Figure 7). […] In A2780 cells, both compounds trigger similar cell death rates in parental and Cisplatin-resistant cells. Cisplatin-resistant SKOV3 are much more sensitive to both ruthenium(II) complexes than the parental counterpart, with a median of 3.3-fold higher sensitivity.
as §1

[10] = Stability determination via 1H NMR spectroscopy; assay type: physicochemical
Experimental: To investigate the behaviour of the ruthenium(II) complexes Ru1, Ru3, and Ru8 in solution, we analysed kinetic measurements via ^1H NMR spectroscopy (every 1 h, one spectra). NMR signals and behaviour of the ruthenium and osmium compounds is similar, but osmium(II) compounds show a slower ligand exchange mechanism and a higher stability in general. […] The same measurements were done also with dmso at room temperature. Similar changes in the spectra occur at room temperature and new species are detectable (exemplified for Ru1 in the Supplementary Figure S3). However, slower speciation processes in comparison to 37 °C measurements occur, which is exemplarily represented by the disappearance of the double-doublets of the cymene ligand after 29 h (rt, Supplementary Figure S3) vs. 5 h (37 °C, Supplementary Figure S2). As reported earlier, dmso molecules are able to bind to the ruthenium(II) center by losing the cymene ligand and changing the structure to an octahedral metal(II) coordination sphere. Thus, an explanation for the new species can be the binding of dmso molecules to the ruthenium(II) center after loss of the cymene ligand representing the new species in the ^1H NMR spectra. To support this hypothesis, the ruthenium(II) complexes were measured under same conditions (rt, 72 h) in CD2Cl2, and it was shown that the compounds are stable under these conditions in the other solvent (see Supplementary Figure S4).
NMR spectra were measured via NMR spectroscopy on Bruker Avance 400 MHz. Substances were solved in dmso-d6 or CD2Cl2 and measured directly at 37 °C or room temperature for 72 h. NS = 128 scans, t = 709 s/2891 s break, 72 measurements.

[11] = system: Fibroblasts; assay: IC50 on non-cancerous cell cultures; assay type: cell-based; details: normal primary short-term cell culture
[12] = system: Keratinocytes; assay: IC50 on non-cancerous cell cultures; assay type: cell-based; details: normal primary short-term cell culture
[13] = system: MCF10A; assay: IC50 on non-cancerous cell cultures; assay type: cell-based; details: non-cancerous breast epithelial cell line
[14] = system: SKOV3 cells; assay: Cell death rate, PI staining of live cells (FACS); assay type: cell-based; details: parental SKOV3, 15 µM, 48 h
Experimental: as §4, §1

Compound: CSC(=S)C=C([O][Ru][Cl])c1cccc(O)c1.Cc1ccc(C(C)C)cc1 [Ru3, [(η^6-p-cymene)Ru(1-(3-hydroxyphenyl)-3-(methylthio)-3-thioxo-prop-1-en-1-olate-O,S)Cl]]
effect on cell cycle distribution [1]: no or only a minor effect on cell cycle distribution
IC50 [2]: 8 µM
IC50 [3]: 8.7 µM
IC50 [4]: 18.9 µM
RF A2780 (resistance factor) [5]: 0.9
IC50 [5]: 7.4 µM
IC50 [6]: 12.1 µM
RF SKOV3 (resistance factor) [6]: 0.6
γH2AX-foci induction [7]: less γH2AX-foci as Cisplatin
mean IC50 value on Cisplatin resistant cell lines compared with Cisplatin [8]: lower
capacity to induce cell death in vitro ([9]; A2780 and SKOV3 cells, 20 µM and 30 µM): high capacity to induce cell death

disappearance of the double-doublets of the cymene ligand ([10]; dmso, rt): 29 h
disappearance of the double-doublets of the cymene ligand ([10]; dmso-d6, 37 °C): 5 h
loss of the methine proton signal ([10]; dmso-d6, 37 °C): 7 h
Compound: [(n^6-p-cymene)Ru(1-phenyl-3-(methylthio)-3-thioxo-prop-1-en-1-olate-O,S)Cl] [Ru1]
IC50 [2]: 28.8 µM
IC50 [3]: 12.8 µM
IC50 [4]: 34.7 µM
RF A2780 (resistance factor) [5]: 0.75
IC50 [5]: 9.6 µM
IC50 [6]: 18.4 µM
RF SKOV3 (resistance factor) [6]: 0.5

stability determination using NMR spectroscopy ([10]; osmium(II) compounds): no structural changes
Compound: [(η^6-p-cymene)Os(1-(3-hydroxyphenyl)-3-(ethylthio)-3-thioxo-prop-1-en-1-olate-O,S)Cl] [Os3]
IC50 [2]: 0.7 µM
IC50 [3]: 0.4 µM
IC50 [4]: 1.1 µM
RF A2780 (resistance factor) [5]: 1
IC50 [5]: 0.4 µM
IC50 [6]: 2.3 µM
RF SKOV3 (resistance factor) [6]: 2.1
IC50 [11]: > 100 µM
IC50 [12]: 84.5 µM
IC50 [13]: 21.3 µM

Compound: cis-[Pt(NH3)2Cl2] [Cisplatin]
effect on cell cycle distribution ([1]; 5 µM, parental A2780 and SKOV3 cells): cell cycle arrest in G2/M phase
IC50 [2]: 7.6 µM
IC50 [3]: 1.3 µM
IC50 [4]: 3.8 µM
RF A2780 (resistance factor) [5]: 4.7
IC50 [5]: 6.1 µM
IC50 [6]: 13.5 µM
RF SKOV3 (resistance factor) [6]: 3.6
IC50 [11]: 4.1 µM
IC50 [12]: 5.7 µM
cell death compared to untreated cells [14]: 6.3 fold
cell death compared to untreated cells ([9]; parental A2780, 15 µM, PI staining): 29.9 fold
IC50 [13]: 3.3 µM
